In patent publication US20080216197A1, “Polypeptide Having Function Related to Pyridoxine Biosynthesis, Polynucleotide Coding the Polypeptide, and Those Use” (Genomine, Inc., priority 2005, published 2008):
Where a name gives a salt, the structure may show the parent alone.

Experiments:
Arabidopsis thaliana = assay: PPT treatment of T2 plants grown in Petri dishes (segregation check); type: in vivo; details: 12.5 mg/L PPT
[1] = test system: mutant Arabidopsis thaliana; assay: Phenotype recovery of mutant T2 plants on pyridoxine-supplemented MS medium; type: in vivo; details: 2.5 mg/L pyridoxine-HCl in MS medium, 30 seeds/Petri dish, slight etiolation observed, FIG. 7
Experimental: The analysis of the AtPDX5 domain led to the inference that the AtPDX5 gene might have an enzymatic function involved in the pyridoxine biosynthesis pathway. To examine this, T2 plants of the mutant Arabidopsis thaliana were cultured in Petri dishes containing a 2.5 mg/L pyridoxine-HCl (Sigma, USA)-supplemented MS medium (30 seeds/Petri dish). […] In addition, the etiolation of the mutant plants was believed to be attributed to a low content of pyridoxine in the medium. Based on the fact that the phenotype recovery was induced by the addition of pyridoxine, the AtPDX5 gene is concluded to be directly responsible for pyridoxine biosynthesis. As described hereinbefore, T2 plants of the mutant Arabidopsis thaliana have the phenotype properties of significant growth delay, etiolation throughout leaves, and death in an early stage, and the mutant Arabidopsis thaliana can have the same phenotype as that of the wild-type in the presence of pyridoxine.

SMILES | effect on the five plants having a wild-type phenotype (Arabidopsis thaliana) | effect on the other 25 plants (etiolation and retarded growth phenotype) (Arabidopsis thaliana) | phenotype (growth delay) of the mutant versus the wild-type [1]
CP(=O)(O)CC[C@H](N)C(=O)O [PPT, phosphinothricin] | converted to a fatal phenotype | remained unchanged | 
Cc1ncc(CO)c(CO)c1O [pyridoxine-HCl, 2-methyl-3-hydroxy-4,5-di(hydroxymethyl)pyridine] |  |  | no significant difference in phenotype
